The results in this text go back to patent publication US12358932B2, “Chemical compounds” (BORAH, INC., priority 2019, dated 2025).

For this test, the target named is T1, Recombinant human PDE4B (Homo sapiens, UniProt Q07343).
T1 construct: aa 305-end; GST (N); made in house; host or cells: Sf9 insect cells (baculovirus)
As to the kind of experiment: PDE4B Phosphodiesterase Assay. As to conditions: compound list; + = noted target activity. In kind it is biochemical. On the set-up: key to Activity Note: PDE4: The (+) symbols identify a compound of the present disclosure with the noted target activity; +*: The (*) symbols indicate preferential activity, where the greater number identifies the most preferred compounds; +**: The (*) symbols indicate preferential activity, where the greater number identifies the most preferred compounds; +***: The (*) symbols indicate preferential activity, where the greater number identifies the most preferred compounds. The procedure: The assay is based on the fluorescence polarization measuring AMP/GMP production as a result of the enzyme activity by displacement of Tracer binding to the AMP/GMP antibody. • Reaction Buffer: 10 mM Tris-HCl, pH 7.5, 5 mM MgCl2, 0.01% Brij 35, 1 mM DTT and 1% DMSO. • Enzyme: Recombinant human PDE4B (Gene Accession #NM_002600; aa 305-end) was expressed by baculovirus in Sf9 insect cells using an N-terminal GST tag. Mw=78 kDa. • Substrate: 1 μM cAMP • Detection: Transcreener® AMP2/GMP2 Antibody AMP2/GMP2 AlexaFluor 633 Tracer Reaction Procedure: • 1. Prepared indicated enzyme and substrate in freshly prepared Reaction Buffer • 2. Delivered enzyme solution into the reaction well • 3. Delivered compounds in 100% DMSO into the enzyme solution by Acoustic technology (Echo550; nanoliter range), incubated for 10 min at room temperature • 4. Delivered substrate solution into the reaction well to initiate the reaction • 5. Incubated for 1 h at room temperature • 6. Added detection mixture (Tracer and antibody in the stop buffer) to stop the reaction and incubated for 90 min with gentle mixing. The fluorescence polarization was measured at Ex/Em 620/688.
Data Analysis: The FP signals were converted into nM product based on an AMP/GMP standard curve and calculated % Enzyme activity relative to DMSO control by Excel. The curve fit was performed using GraphPad prism.

Structures are written as SMILES.

T1 sequence (Q07343 305-736 limits assumed): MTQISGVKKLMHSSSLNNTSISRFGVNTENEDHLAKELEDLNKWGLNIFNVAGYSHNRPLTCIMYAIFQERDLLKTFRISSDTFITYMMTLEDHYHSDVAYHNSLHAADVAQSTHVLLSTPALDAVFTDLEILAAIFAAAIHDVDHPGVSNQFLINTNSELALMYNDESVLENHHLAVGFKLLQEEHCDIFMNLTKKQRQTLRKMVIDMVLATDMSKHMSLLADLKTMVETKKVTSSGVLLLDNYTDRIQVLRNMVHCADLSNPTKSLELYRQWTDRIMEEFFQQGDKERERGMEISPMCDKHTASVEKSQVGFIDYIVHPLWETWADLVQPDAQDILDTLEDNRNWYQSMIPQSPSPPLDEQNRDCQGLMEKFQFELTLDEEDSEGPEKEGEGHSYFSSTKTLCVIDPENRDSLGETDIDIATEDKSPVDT

Consider `Cc1cnc(Nc2ccc3c(c2)COB3O)nc1OC1CCCCC1` [5-((4-(cyclohexyloxy)-5-methylpyrimidin-2-yl)amino)benzo[c][1,2]oxaborol-1(3H)-ol], for which the “Activity Note: PDE4” value was “+”. As for `Cc1cnc(Nc2ccc3c(c2)COB3O)nc1SC1CCCCC1` [5-((4-(cyclohexylthio)-5-methylpyrimidin-2-yl)amino)benzo[c][1,2]oxaborol-1(3H)-ol], the “Activity Note: PDE4” value is recorded as “+”. Turning to `OB1OCc2cc(Nc3ncc(C(F)(F)F)c(NC4CCCC4)n3)ccc21` [5-((4-(cyclopentylamino)-5-(trifluoromethyl)pyrimidin-2-yl)amino)benzo[c][1,2]oxaborol-1(3H)-ol], the “Activity Note: PDE4” value is “+”. On to `OB1OCc2cc(Nc3ncc(F)c(NC4CCCC4)n3)ccc21` [5-((4-(cyclopentylamino)-5-fluoropyrimidin-2-yl)amino)benzo[c][1,2]oxaborol-1(3H)-ol], for which the “Activity Note: PDE4” value was “+”. Turning to `Cc1cnc(Nc2ccc3c(c2)COB3O)nc1NC1CCCC1` [5-((4-(cyclopentylamino)-5-methylpyrimidin-2-yl)amino)benzo[c][1,2]oxaborol-1(3H)-ol], the “Activity Note: PDE4” value is given as “+”. Consider `OB1OCc2cc(Nc3nccc(NC4CCCC4)n3)ccc21` [5-((4-(cyclopentylamino)pyrimidin-2-yl)amino)benzo[c][1,2]oxaborol-1(3H)-ol], for which the “Activity Note: PDE4” value is listed as “+”. Under `Cc1cnc(Nc2ccc3c(c2)COB3O)nc1OC1CCCC1` [5-((4-(cyclopentyloxy)-5-methylpyrimidin-2-yl)amino)benzo[c][1,2]oxaborol-1(3H)-ol] stands “+”. Under `Cc1cnc(Nc2ccc3c(c2)COB3O)nc1NC1CC1` [5-((4-(cyclopropylamino)-5-methylpyrimidin-2-yl)amino)benzo[c][1,2]oxaborol-1(3H)-ol] stands “+”; under `CCCC(CC)Nc1nc(Nc2ccc3c(c2)COB3O)ncc1C(F)(F)F` (stereo not shown) [5-((4-(hexan-3-ylamino)-5-(trifluoromethyl)pyrimidin-2-yl)amino)benzo[c][1,2]oxaborol-1(3H)-ol], “+”. For `CCCC(CC)Nc1nc(Nc2ccc3c(c2)COB3O)ncc1C` (stereo not shown) [5-((4-(hexan-3-ylamino)-5-methylpyrimidin-2-yl)amino)benzo[c][1,2]oxaborol-1(3H)-ol], the “Activity Note: PDE4” value is “+”. Next, `CCC(CC)Nc1nc(Nc2ccc3c(c2)COB3O)ncc1C(F)(F)F` [5-((4-(pentan-3-ylamino)-5-(trifluoromethyl)pyrimidin-2-yl)amino)benzo[c][1,2]oxaborol-1(3H)-ol]: “+”; `CCC(CC)Nc1ccnc(Nc2ccc3c(c2)COB3O)n1` [5-((4-(pentan-3-ylamino)pyrimidin-2-yl)amino)benzo[c][1,2]oxaborol-1(3H)-ol]: “+”; `CCCNc1nc(Nc2ccc3c(c2)COB3O)ncc1C(F)(F)F` [5-((4-(propylamino)-5-(trifluoromethyl)pyrimidin-2-yl)amino)benzo[c][1,2]oxaborol-1(3H)-ol]: “+”. In the case of `CCC(C)Nc1nc(Nc2ccc3c(c2)COB3O)ncc1C(F)(F)F` (stereo not shown) [5-((4-(sec-butylamino)-5-(trifluoromethyl)pyrimidin-2-yl)amino)benzo[c][1,2]oxaborol-1(3H)-ol], the “Activity Note: PDE4” value is given as “+”. In the case of `CCC(C)Nc1nc(Nc2ccc3c(c2)COB3O)ncc1Cl` (stereo not shown) [5-((4-(sec-butylamino)-5-chloropyrimidin-2-yl)amino)benzo[c][1,2]oxaborol-1(3H)-ol], the “Activity Note: PDE4” value is “+”. Under `CCC(C)Nc1nc(Nc2ccc3c(c2)COB3O)ncc1F` (stereo not shown) [5-((4-(sec-butylamino)-5-fluoropyrimidin-2-yl)amino)benzo[c][1,2]oxaborol-1(3H)-ol] stands “+”.

Consider `CCC(C)Nc1nc(Nc2ccc3c(c2)COB3O)ncc1C` (stereo not shown) [5-((4-(sec-butylamino)-5-methylpyrimidin-2-yl)amino)benzo[c][1,2]oxaborol-1(3H)-ol], for which the “Activity Note: PDE4” value is on record as “+”. Next, `CCC(CO)Nc1nc(Nc2ccc3c(c2)COB3O)ncc1Cl` (stereo not shown) [5-((5-chloro-4-((1-hydroxybutan-2-yl)amino)pyrimidin-2-yl)amino)benzo[c][1,2]oxaborol-1(3H)-ol]: “+”; `OB1OCc2cc(Nc3ncc(Cl)c(NCCC4CC4)n3)ccc21` [5-((5-chloro-4-((2-cyclopropylethyl)amino)pyrimidin-2-yl)amino)benzo[c][1,2]oxaborol-1(3H)-ol]: “+”; `OB1OCc2cc(Nc3ncc(Cl)c(NC4CCCCC4)n3)ccc21` [5-((5-chloro-4-(cyclohexylamino)pyrimidin-2-yl)amino)benzo[c][1,2]oxaborol-1(3H)-ol]: “+”. Under `OB1OCc2cc(Nc3ncc(Cl)c(NC4CCCC4)n3)cc(F)c21` [5-((5-chloro-4-(cyclopentylamino)pyrimidin-2-yl)amino)-7-fluorobenzo[c][1,2]oxaborol-1(3H)-ol] stands “+”; under `OB1OCc2cc(Nc3ncc(Cl)c(NC4CCCC4)n3)ccc21` [5-((5-chloro-4-(cyclopentylamino)pyrimidin-2-yl)amino)benzo[c][1,2]oxaborol-1(3H)-ol], “+”; under `CCCC(CC)Nc1nc(Nc2ccc3c(c2)COB3O)ncc1Cl` (stereo not shown) [5-((5-chloro-4-(hexan-3-ylamino)pyrimidin-2-yl)amino)benzo[c][1,2]oxaborol-1(3H)-ol], “+”. Under `CS(=O)(=O)c1nc(Nc2ccc3c(c2)COB3O)ncc1Cl` [5-((5-chloro-4-(methylsulfonyl)pyrimidin-2-yl)amino)benzo[c][1,2]oxaborol-1(3H)-ol] stands “+”; under `CSc1nc(Nc2ccc3c(c2)COB3O)ncc1Cl` [5-((5-chloro-4-(methylthio)pyrimidin-2-yl)amino)benzo[c][1,2]oxaborol-1(3H)-ol], “+”.

For `CCC(CC)Nc1nc(Nc2ccc3c(c2)COB3O)ncc1Cl` [5-((5-chloro-4-(pentan-3-ylamino)pyrimidin-2-yl)amino)benzo[c][1,2]oxaborol-1(3H)-ol], the “Activity Note: PDE4” value is on record as “+”.

For the compound `CCCNc1nc(Nc2ccc3c(c2)COB3O)ncc1Cl` [5-((5-chloro-4-(propylamino)pyrimidin-2-yl)amino)benzo[c][1,2]oxaborol-1(3H)-ol], the “Activity Note: PDE4” value was “+”. Next, `CCCC(CC)Nc1nc(Nc2ccc3c(c2)COB3O)ncc1F` (stereo not shown) [5-((5-fluoro-4-(hexan-3-ylamino)pyrimidin-2-yl)amino)benzo[c][1,2]oxaborol-1(3H)-ol]: “+”. Under `CCC(CC)Nc1nc(Nc2ccc3c(c2)COB3O)ncc1F` [5-((5-fluoro-4-(pentan-3-ylamino)pyrimidin-2-yl)amino)benzo[c][1,2]oxaborol-1(3H)-ol] stands “+”; under `CCCNc1nc(Nc2ccc3c(c2)COB3O)ncc1F` [5-((5-fluoro-4-(propylamino)pyrimidin-2-yl)amino)benzo[c][1,2]oxaborol-1(3H)-ol], “+”; under `Cc1cnc(Nc2ccc3c(c2)COB3O)nc1NC(C)c1ccccc1` (stereo not shown) [5-((5-methyl-4-((1-phenylethyl)amino)pyrimidin-2-yl)amino)benzo[c][1,2]oxaborol-1(3H)-ol], “+”.
